Measurements: patent publication US20090227606A1, “Methods for Preventing or Treating Acute and Chronic Pain” (priority 2006, published 2009)
Entries after “also recorded” stand apart in the source; their conditions may differ.

Key:
GLAST mRNA = assay: Real Time RT-PCR of ipsilateral lumbar spinal cord, GLAST mRNA; type: in vivo, rat
Experimental: Tissue was collected from 4-5 rats/group on postoperative days 4 or 12. In order to obtain both mRNA and protein from the same tissue sample, the L5 region of the spinal cord (ipsilateral to the injury), was isolated and placed in PBS supplemented with protease inhibitor cocktail (1:1000, Sigma Chemical Co., St. Louis, Mo.) and RNase inhibitor (0.75 U/μL Ambion, Austin, Tex.). Samples were sonicated in five one-second bursts at half-maximal power, centrifuged at 6500 rpm for 15 minutes at 4° C. Protein-containing supernatants were collected and stored at −80° C. until further processing by Western blot analysis. […]
Real time RT-PCR reactions were carried out in a total reaction volume of 25 μL containing a final concentration of 1.5 U Platinum Taq DNA polymerase (Invitrogen Corporation, Carlsbad, Calif.); 20 mM Tris HCl (pH 8.4); 50 mM KCl; 3 mM MgCl2; 200 μM dGTP, dCTP, and dATP; 400 μM dUTP and 1 U of UDG (uracyl DNA glycosylase); 900 nM of forward and reverse primers; 300 nM Taqman probe; and 5 μL of a 10-fold dilution of cDNA (50 ng) from the RT step. The iCycler™ Multicolor Real-Time PCR detection system (Bio-Rad, Hercules, Calif.) was used to quantify PCR product. […] The relative fold change from control was then expressed by calculation of 2^−ΔΔC^T for each sample and the results are expressed as the group mean fold change±SEM.

GLT-1 = assay: eGFP-GLT-1-positive puncta in mouse spinal cord dorsal horn; type: in vivo
Experimental: With these in vivo data collected, further experiments were performed in the transgenic mice to more clearly define the effects of propentofylline treatment on GLT-1 and GLAST in the spinal cord. As discussed above, following in vivo testing, mice were transcardially perfused and tissue was fixed with paraformaldehyde. Lumbar spinal cord sections were identified and post-fixed in paraformaldehyde. After one week in sucrose to prevent freeze fracture, spinal cord segments were frozen in dry ice, mounted and prepared with cryostat sectioning. Sections were then subjected to immunohistochemical analysis. […] In order to quantitate the relative number of eGFP (marker for GLT-1) or DsRed (marker for GLAST) puncta in each spinal cord dorsal horn, images using a fluorescence microscope were taken with a Q-Fire cooled camera (397 ms exposure). […] An observer blind to the treatment groups was used to count the relative number of GLT-1 or GLAST positive puncta in the ipsilateral (injured) dorsal horn versus the contralateral (non-injured) dorsal horn. […] For both reporters (GLT-1, green color; GLAST, red color), diffuse, cytoplasmic and punctate, perinuclear expression was observed that overlapped with GFAP (blue color) in some, but not all cases.
Transgenic mice on a C57B1/6 background were created according to the methods previously described (Regan et al. 2006. J. Neuroscience, in press). Briefly, in order to determine where in the central nervous system GLAST is expressed, transgenic mice were created using a bacterial artificial chromosome containing the GLAST gene plus 18 kb of DNA upstream of the first exon and 60 kb downstream of the last exon. DsRed cDNA was inserted into the first exon to allow expression of DsRed instead of GLAST when the promoter is active. […]
As described previously with rats, mice were transcardially perfused with 0.1 M PBS (phosphate-buffered saline), pH 7.4, followed by 4%-paraformaldehyde in PBS on day 12 post-L5 spinal nerve transection. […] The sections were examined with a fluorescence microscope, and images were captured with a Q-Fire cooled camera. […]

[1] = L5/propentofylline group, day 12

CCCn1cnc2c1c(=O)n(CCCCC(C)=O)c(=O)n2C [propentofylline]
GLAST mRNA in lumbar spinal cord (GLAST mRNA; day 4, compared to L5 spinal nerve transection alone): slight decrease in GLAST mRNA | GLAST mRNA levels (FIG. 9B legend) (GLAST mRNA; days 4 and 12 post-transection): unaffected | eGFP-GLT-1-positive puncta in injured mice, in words (GLT-1; [1]): reversed with propentofylline administration; also recorded: restored levels of eGFP-GLT-1-positive puncta to that of the contralateral side | ipsilateral versus contralateral ratio of eGFP-GLT-1-positive puncta (GLT-1; [1]): 1 | eGFP-GLT-1-positive puncta in sham mice (GLT-1; sham/propentofylline group): did not lead to further increases in GLT-1 above normal expression levels
